# “And” between values parts separate entries of the source, which are not always exact repeats. Equal entries are not always repeated.
# How the values were obtained:
# [1] = test system: long term cultured gut T-cell cultures C1x, C2x, C4.2; format: cell-based, human
# [2] = test system: human T-cell lines; experiment: Cytolysis after addition of Infliximab and incubation with fresh human serum (complement); format: cell-based; settings: versus murine SP2/O myeloma cell results
# [3] = test system: gut T-cell cultures from patients with Crohn's disease
# [4] = test system: transmembrane TNFα on SP2/O myeloma cells; settings: murine SP2/O myeloma cells with cleavage-resistant transmembrane TNFα; cited from earlier work
# [5] = test system: in vivo activated gut T-lymphocytes (primary cultures C11.3, C12.1, C8.1, C8.3) from patients with Crohn's disease; format: cell-based, human; settings: 24 h
# [6] = test system: gut T-cell cultures from patients with Crohn's disease; format: cell-based, human
substance,measurement,setting,value
Infliximab: chimeric TNFα antibody with high avidity for transmembrane TNFα (obtained from Centocor),SEA induced cytokine production after addition of Infliximab (in words),[1],reduced
same,Complement activation / cytolysis by binding of Infliximab (in words),[2],could not confirm
same,Amount of propidium iodide and Annexin-FITC positive cells compared with SEA alone (in words),[3],did not increase
same,Induction of apoptosis (in words),[3],did not induce any apoptosis
same,Infliximab molecules bound per cell (Scatchard analyses),[4],about 35000 molecules per cell
same,Reduction of IFNγ production by Infliximab,[5],68% and 43% and 49% and 56%
same,Reduction of TNFα production by Infliximab,[5],97%
same,Proliferation rate (in words),[6],did not change
